Measured values from patent US12180255B2, “Compositions and methods for derepressing RE1 silencing transcription factor target genes” (Alcamena Stem Cell Therapeutics, LLC, priority 2019, dated 2024).
Where a SMILES comes first, the peptide text is derived from it. [ ]: non-standard residue; d: D form. Gly(Dodecyl) = CCCCCCCCCCCC[C@H](N)C(=O)O

Experiments:
Type in all cases: biochemical
CTDSP1 = target: T1, CTDSP1 (Homo sapiens, UniProt Q9GZU7); experiment: In vitro CTDSP1 phosphatase activity on phosphorylated REST peptide; conditions: phosphorylated REST peptide substrate; read-out: EC50, inhibition of CTDSP1 activity
T1 construct: GSGS linker + His6 (C)
T1 sequence (Q9GZU7 with tags, fused parts or gaps): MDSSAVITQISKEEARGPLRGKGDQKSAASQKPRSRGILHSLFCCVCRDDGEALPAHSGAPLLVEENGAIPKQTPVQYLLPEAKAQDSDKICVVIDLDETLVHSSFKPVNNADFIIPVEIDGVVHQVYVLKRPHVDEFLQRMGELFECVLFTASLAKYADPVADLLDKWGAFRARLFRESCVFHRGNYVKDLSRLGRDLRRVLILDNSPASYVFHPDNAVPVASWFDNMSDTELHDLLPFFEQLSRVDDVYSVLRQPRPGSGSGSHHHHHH
Protocol: FIG. 25. In vitro CTDSP1 phosphatase activity (relative to GST control) on the REST peptide (TEDpSPPp[…] (SEQ ID NO: 329)) as a substrate after exposure to 1 μM of RPP (SEQ ID NO: 1) or one of its variants (Table 3).
FIG. 26. […] N=5, error bars are standard deviation.
Results: FIG. 25—The top 51 most abundant RPP variants identified in the RNA display/protein evolution screen are listed in-Table 3 in the order of most (V1) to least (V51) abundant peptides. The primers used to make these peptides are listed in-Table 5. A phosphatase activity screen (Table 6, FIG. 25) was used to assess the ability of the top 51 RPPV to inhibit CTDSP1 phosphatase activity at amino acids 861 and 864 on the endogenous phosphorylated REST peptide (TEDpSPPp[…] (SEQ ID NO: 329)).
The phosphorylated REST peptide (TEDpSPPp[…] (SEQ ID NO: 329)) was synthesized by GeneScript. Phosphatase reactions were performed with 10 mM Tris pH 8, 10 mM MgCl2, 100 nM CTDSP1, 0.5 μM phosphate sensor (Thermo Fischer), 50 μM of REST peptide and various concentrations of peptide-GST fusions at room temperature for 10 min. All assays were performed in 96-well pates (Corning P/N 3686) rinsed with water 10 times. Fluorescence was measured by BioTek Synergy HTX using kinetic read with excitation at 420/27 nm and emission at 485/20 nm.

PPA1 = target: T2, PPA1 (Homo sapiens, UniProt Q15181); experiment: Off target phosphatase activity on phosphorylated REST peptide; conditions: 10000 nM RPP
T2 sequence (Q15181 2-289 limits assumed): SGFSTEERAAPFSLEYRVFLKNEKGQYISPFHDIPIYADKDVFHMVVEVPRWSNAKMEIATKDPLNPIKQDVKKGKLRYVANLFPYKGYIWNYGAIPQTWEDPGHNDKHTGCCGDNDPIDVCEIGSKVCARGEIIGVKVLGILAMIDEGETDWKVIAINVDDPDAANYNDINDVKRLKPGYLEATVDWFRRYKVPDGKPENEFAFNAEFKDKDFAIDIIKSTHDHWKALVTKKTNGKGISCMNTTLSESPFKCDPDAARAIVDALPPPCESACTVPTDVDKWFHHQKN

PP5CA = target: T3, PP5CA (Homo sapiens, UniProt P53041); experiment: as above; conditions: 10000 nM RPP
T3 sequence (P53041 1-499): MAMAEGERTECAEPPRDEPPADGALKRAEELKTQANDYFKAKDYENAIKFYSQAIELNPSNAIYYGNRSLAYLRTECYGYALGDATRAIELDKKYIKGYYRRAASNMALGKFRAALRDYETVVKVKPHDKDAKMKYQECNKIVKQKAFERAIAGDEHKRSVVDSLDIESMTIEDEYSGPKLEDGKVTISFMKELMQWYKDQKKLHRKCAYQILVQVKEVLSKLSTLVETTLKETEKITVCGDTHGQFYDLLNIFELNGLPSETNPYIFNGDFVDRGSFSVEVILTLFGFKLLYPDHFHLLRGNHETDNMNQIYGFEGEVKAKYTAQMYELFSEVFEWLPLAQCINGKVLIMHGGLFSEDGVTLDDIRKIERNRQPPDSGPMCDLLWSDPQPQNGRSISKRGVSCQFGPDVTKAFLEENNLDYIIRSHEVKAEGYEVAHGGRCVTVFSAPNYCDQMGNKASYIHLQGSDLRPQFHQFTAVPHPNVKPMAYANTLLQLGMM

## CCCCCCCCCCCC[C@@H]1NC(=O)[C@@H](CCCNC(=N)N)NC(=O)[C@@H](CCCNC(=N)N)NC(=O)[C@@H](Cc2c[nH]c3ccccc23)NC(=O)[C@@H](Cc2c[nH]c3ccccc23)NC(=O)[C@@H](CCCNC(=N)N)NC(=O)[C@@H](CCC(=O)O)NC(=O)[C@@H](CC(=O)O)NC(=O)[C@@H](CC(C)C)NC(=O)[C@@H](CCC(=O)O)NC(=O)[C@H]2CCCN2C(=O)[C@H]2CCCN2C(=O)[C@@H](CCC(=O)O)NC(=O)[C@H]2CCCN2C(=O)[C@H]2CCCN2C(=O)[C@@H](CC(C)C)NC(=O)[C@H]2CCCN2C(=O)[C@@H](CCCCN)NC(=O)[C@@H](CCCNC(=N)N)NC(=O)[C@@H](CCCNC(=N)N)NC(=O)[C@@H](CCCNC(=N)N)NC(=O)[C@@H](CCCNC(=N)N)NC(=O)[C@@H](CCCNC(=N)N)NC1=O [SEQ ID NO: 12] (cyclo([dR][dW][dW][dR][dR][Gly(Dodecyl)][dR][dR][dR][dR][dR][dK][dP][dL][dP][dP][dE][dP][dP][dE][dL][dD][dE]))
CTDSP1
  EC50: ~0.02 µM
PPA1
  % Activity (Average N = 5): 101.125%
PP5CA
  % Activity (Average N = 5): 97.902%
